Results from US20170143701A1, “CARBOHYDRATE METABOLISM-AMELIORATING AGENT” (SUNTORY HOLDINGS LIMITED, priority 2014, published 2017).

Key:
[1] = system: NCI-H716 cells; experiment: In vitro GLP-1 secretion-accelerating action: amount of active GLP-1 secreted (ELISA); format: cell-based; settings: 1 hour; for Significant difference (p < 0.05) vs control group, amount of active GLP-1 secreted: 10 mM, Student's t-test; for Amount of active GLP-1 secreted (relative value to control group as 100), average value: cyclic dipeptide 10 mM with 10 μM Sitagliptin phosphate, group with no cyclic dipeptide = 100
How it was run: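 NCI-H716 cells were cultured 48 h, then exposed 1 hour to cyclic dipeptide at 10 mM final with 10 μM sitagliptin in PBS(+). Active GLP-1 in the supernatant was measured by ELISA and expressed relative to the no-dipeptide group (=100).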

[2] = system: C57/BL6J mice; experiment: In vivo plasma GLP-1 level-increasing action: plasma active GLP-1 level (ELISA) after oral administration; settings: 10 mg/kg oral; for Significant difference (p < 0.05) vs control group, plasma active GLP-1 level: 30 minutes, Student's t-test; for Plasma active GLP-1 level (relative value to control group as 100), average value: blood 30 minutes after, 0.5% CMC-Na group = 100
How it was run: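 Male C57BL/6J mice, habituated 1 week, deprived of food 5.5 h and water 2 h, then dosed orally with compound at 10 mg/kg in 0.5% CMC-Na. Vena cava blood taken 30 min later under anaesthesia, with heparin and sitagliptin added; plasma active GLP-1 by ELISA, relative to vehicle group set at 100.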

CC[C@H](C)[C@@H]1NC(=O)[C@H](CCC(N)=O)NC1=O [compound 182, cyclo-glutaminyl-isoleucine]
Significant difference (p < 0.05) vs control group, amount of active GLP-1 secreted ([1]; Table 4, Experiment 4): Yes
Amount of active GLP-1 secreted (relative value to control group as 100), average value ([1]; Table 4, Experiment 4): 445
Significant difference (p < 0.05) vs control group, plasma active GLP-1 level ([2]; Table 7, Experiment 2): Yes
Plasma active GLP-1 level (relative value to control group as 100), average value ([2]; Table 7, Experiment 2): 188

C[C@@H]1NC(=O)[C@H](Cc2cnc[nH]2)NC1=O [compound 34, Cyclo(Ala-His)]
Significant difference (p < 0.05) vs control group, amount of active GLP-1 secreted ([1]; Table 1, Experiment 1): No
Amount of active GLP-1 secreted (relative value to control group as 100), average value ([1]; Table 1, Experiment 1): 211
Significant difference (p < 0.05) vs control group, plasma active GLP-1 level ([2]; Table 6, Experiment 1): No
Plasma active GLP-1 level (relative value to control group as 100), average value ([2]; Table 6, Experiment 1): 100

O=C(O)C[C@@H]1NC(=O)[C@@H]2CCCN2C1=O [compound 48, Cyclo(Asp-Pro)]
Significant difference (p < 0.05) vs control group, amount of active GLP-1 secreted ([1]; Table 2, Experiment 2): Yes
Amount of active GLP-1 secreted (relative value to control group as 100), average value ([1]; Table 2, Experiment 2): 199
Significant difference (p < 0.05) vs control group, plasma active GLP-1 level ([2]; Table 6, Experiment 1): No
Plasma active GLP-1 level (relative value to control group as 100), average value ([2]; Table 6, Experiment 1): 110

NC(=O)CC1NC(=O)CNC1=O (stereo not shown) [compound 215, cyclo-asparaginyl-glycine]
Significant difference (p < 0.05) vs control group, amount of active GLP-1 secreted ([1]; Table 4, Experiment 4): Yes
Amount of active GLP-1 secreted (relative value to control group as 100), average value ([1]; Table 4, Experiment 4): 611
Significant difference (p < 0.05) vs control group, plasma active GLP-1 level ([2]; Table 7, Experiment 2): Yes
Plasma active GLP-1 level (relative value to control group as 100), average value ([2]; Table 7, Experiment 2): 305

NC(=O)CC1NC(=O)C(CC(N)=O)NC1=O (stereo not shown) [compound 173, Cyclo(Asn-Asn)]
Significant difference (p < 0.05) vs control group, amount of active GLP-1 secreted ([1]; Table 4, Experiment 4): Yes
Amount of active GLP-1 secreted (relative value to control group as 100), average value ([1]; Table 4, Experiment 4): 255
Significant difference (p < 0.05) vs control group, plasma active GLP-1 level ([2]; Table 15, Experiment 10): No
Plasma active GLP-1 level (relative value to control group as 100), average value ([2]; Table 15, Experiment 10): 123

NC(=O)CCC1NC(=O)C(CC(N)=O)NC1=O (stereo not shown) [compound 174, Cyclo(Gln-Asn)]
Significant difference (p < 0.05) vs control group, amount of active GLP-1 secreted ([1]; Table 4, Experiment 4): Yes
Amount of active GLP-1 secreted (relative value to control group as 100), average value ([1]; Table 4, Experiment 4): 305
Significant difference (p < 0.05) vs control group, plasma active GLP-1 level ([2]; Table 15, Experiment 10): No
Plasma active GLP-1 level (relative value to control group as 100), average value ([2]; Table 15, Experiment 10): 168

O=C1NC(Cc2c[nH]c3ccccc23)C(=O)NC1Cc1cnc[nH]1 (stereo not shown) [compound 60, Cyclo(Trp-His)]
Significant difference (p < 0.05) vs control group, amount of active GLP-1 secreted ([1]; Table 2, Experiment 2): Yes
Amount of active GLP-1 secreted (relative value to control group as 100), average value ([1]; Table 2, Experiment 2): 260
Significant difference (p < 0.05) vs control group, plasma active GLP-1 level ([2]; Table 6, Experiment 1): No
Plasma active GLP-1 level (relative value to control group as 100), average value ([2]; Table 6, Experiment 1): 129

O=C(O)C[C@@H]1NC(=O)[C@H](CO)NC1=O [compound 193, cyclo-aspartyl-serine]
Significant difference (p < 0.05) vs control group, amount of active GLP-1 secreted ([1]; Table 4, Experiment 4): Yes
Amount of active GLP-1 secreted (relative value to control group as 100), average value ([1]; Table 4, Experiment 4): 509
Significant difference (p < 0.05) vs control group, plasma active GLP-1 level ([2]; Table 7, Experiment 2): Yes
Plasma active GLP-1 level (relative value to control group as 100), average value ([2]; Table 7, Experiment 2): 266

NC(=O)CC[C@@H]1NC(=O)[C@H](Cc2cnc[nH]2)NC1=O [compound 191, cyclo-glutaminyl-histidine]
Significant difference (p < 0.05) vs control group, amount of active GLP-1 secreted ([1]; Table 4, Experiment 4): Yes
Amount of active GLP-1 secreted (relative value to control group as 100), average value ([1]; Table 4, Experiment 4): 743
Significant difference (p < 0.05) vs control group, plasma active GLP-1 level ([2]; Table 7, Experiment 2): Yes
Plasma active GLP-1 level (relative value to control group as 100), average value ([2]; Table 7, Experiment 2): 247

CC(C)C[C@@H]1NC(=O)[C@H](CCCN=C(N)N)NC1=O [compound 43, cyclo-arginyl-leucine]
Significant difference (p < 0.05) vs control group, amount of active GLP-1 secreted ([1]; Table 1, Experiment 1): Yes
Amount of active GLP-1 secreted (relative value to control group as 100), average value ([1]; Table 1, Experiment 1): 226
Significant difference (p < 0.05) vs control group, plasma active GLP-1 level ([2]; Table 6, Experiment 1): Yes
Plasma active GLP-1 level (relative value to control group as 100), average value ([2]; Table 6, Experiment 1): 138

CSCC[C@@H]1NC(=O)[C@@H]2CCCN2C1=O [compound 18, cyclo-methionyl-proline]
Significant difference (p < 0.05) vs control group, amount of active GLP-1 secreted ([1]; Table 1, Experiment 1): Yes
Amount of active GLP-1 secreted (relative value to control group as 100), average value ([1]; Table 1, Experiment 1): 338
Significant difference (p < 0.05) vs control group, plasma active GLP-1 level ([2]; Table 6, Experiment 1): Yes
Plasma active GLP-1 level (relative value to control group as 100), average value ([2]; Table 6, Experiment 1): 138

NCCCCC1NC(=O)C(Cc2ccccc2)NC1=O (stereo not shown) [compound 63, cyclo-lysyl-phenylalanine]
Significant difference (p < 0.05) vs control group, amount of active GLP-1 secreted ([1]; Table 2, Experiment 2): Yes
Amount of active GLP-1 secreted (relative value to control group as 100), average value ([1]; Table 2, Experiment 2): 220
Significant difference (p < 0.05) vs control group, plasma active GLP-1 level ([2]; Table 6, Experiment 1): Yes
Plasma active GLP-1 level (relative value to control group as 100), average value ([2]; Table 6, Experiment 1): 206

C[C@@H]1NC(=O)[C@@H]2CCCN2C1=O [compound 187, cyclo-L-alanyl-proline]
Significant difference (p < 0.05) vs control group, amount of active GLP-1 secreted ([1]; Table 4, Experiment 4): Yes
Amount of active GLP-1 secreted (relative value to control group as 100), average value ([1]; Table 4, Experiment 4): 1186
Significant difference (p < 0.05) vs control group, plasma active GLP-1 level ([2]; Table 7, Experiment 2): Yes
Plasma active GLP-1 level (relative value to control group as 100), average value ([2]; Table 7, Experiment 2): 217
